Our source for the IC50 values is patent publication US20240228487A1, “FUSED HETEROCYCLIC COMPOUND AND APPLICATION THEREOF, PHARMACEUTICAL COMPOSITIONS CONTAINING SAME AND APPLICATION THEREOF” (ZHEJIANG UNIVERSITY, priority 2021, published 2024).

In general, IC50 refers to the concentration at which inhibition is half-maximal. A higher IC50 goes with a need for much substance.

For the test, the target named is T1, human TRPM2 channels (Homo sapiens, UniProt O94759).
T1 construct: expressed in transfected cells
Briefly: whole cell patch clamp, inhibition of TRPM2 channel current. It counts as cell-based. As to conditions: HEK293 cells stably expressing human TRPM2, 500 μM ADPR. As to the method:
The fused heterocyclic compound of the present invention has an inhibitory effect on the TRPM2 channel, and its pharmacological activity is measured using whole cell patch clamp technology, the corresponding steps are as follows: Incubating HEK293 cells stably expressing human TRPM2 channels in DMEM/F-12 medium containing 10% bovine serum, 50 units/mL of penicillin and […] of streptomycin under the condition of 5% CO2 and 37° C. The cells before testing are stored in the extracellular fluid (147 mM NaCl, 2 mM KCl, 1 mM MgCl2, 2 mM CaCl2, 10 mM HEPES, 13 mM glucose, pH 7.4). The electrode is filled with the electrode internal solution (147 mM NaCl, 0.05 mM EGTA, 1 mM MgCl2, 10 mM HEPES, 0.5 mM ADPR, pH=7.3), and the resistance is maintained at 3-5 M Ω. Administering ADPR into cells through electrodes, and detecting the ADPR concentration used to activate TRPM2 as 500 μM, when detecting a stable current, perfusing the corresponding concentration of fused heterocyclic compound II-1 into the extracellular fluid for at least 60 seconds. record the change in current magnitude using voltage ramp mode, changing the voltage from −100 mV to+100 mV within 500 ms, with a normal clamp voltage of 0 mV and a TRPM every 5 seconds; finally, replacing the extracellular fluid with a solution with pH=5.0 to block the TRPM2 current, the electrophysiological current test results obtained are shown in Table 1, and the electrophysiological current graph obtained is shown in FIG. 1. Similarly, administering corresponding concentrations of other fused heterocyclic compounds (II-2˜II-54, III-1˜III-11) into the extracellular fluid, taking electrophysiological tests using the same method, the results are shown in Table 1. The electrophysiological representative current graphs of some fused heterocyclic compounds (II-9, II-19, and II-36) inhibiting TRPM2 channel current are shown in FIG. 1.
On the technique in general: Patch clamp records ionic current or voltage across a cell membrane.

Structures can show the parent of a compound that is named as a salt.

T1 sequence (O94759 whole entry): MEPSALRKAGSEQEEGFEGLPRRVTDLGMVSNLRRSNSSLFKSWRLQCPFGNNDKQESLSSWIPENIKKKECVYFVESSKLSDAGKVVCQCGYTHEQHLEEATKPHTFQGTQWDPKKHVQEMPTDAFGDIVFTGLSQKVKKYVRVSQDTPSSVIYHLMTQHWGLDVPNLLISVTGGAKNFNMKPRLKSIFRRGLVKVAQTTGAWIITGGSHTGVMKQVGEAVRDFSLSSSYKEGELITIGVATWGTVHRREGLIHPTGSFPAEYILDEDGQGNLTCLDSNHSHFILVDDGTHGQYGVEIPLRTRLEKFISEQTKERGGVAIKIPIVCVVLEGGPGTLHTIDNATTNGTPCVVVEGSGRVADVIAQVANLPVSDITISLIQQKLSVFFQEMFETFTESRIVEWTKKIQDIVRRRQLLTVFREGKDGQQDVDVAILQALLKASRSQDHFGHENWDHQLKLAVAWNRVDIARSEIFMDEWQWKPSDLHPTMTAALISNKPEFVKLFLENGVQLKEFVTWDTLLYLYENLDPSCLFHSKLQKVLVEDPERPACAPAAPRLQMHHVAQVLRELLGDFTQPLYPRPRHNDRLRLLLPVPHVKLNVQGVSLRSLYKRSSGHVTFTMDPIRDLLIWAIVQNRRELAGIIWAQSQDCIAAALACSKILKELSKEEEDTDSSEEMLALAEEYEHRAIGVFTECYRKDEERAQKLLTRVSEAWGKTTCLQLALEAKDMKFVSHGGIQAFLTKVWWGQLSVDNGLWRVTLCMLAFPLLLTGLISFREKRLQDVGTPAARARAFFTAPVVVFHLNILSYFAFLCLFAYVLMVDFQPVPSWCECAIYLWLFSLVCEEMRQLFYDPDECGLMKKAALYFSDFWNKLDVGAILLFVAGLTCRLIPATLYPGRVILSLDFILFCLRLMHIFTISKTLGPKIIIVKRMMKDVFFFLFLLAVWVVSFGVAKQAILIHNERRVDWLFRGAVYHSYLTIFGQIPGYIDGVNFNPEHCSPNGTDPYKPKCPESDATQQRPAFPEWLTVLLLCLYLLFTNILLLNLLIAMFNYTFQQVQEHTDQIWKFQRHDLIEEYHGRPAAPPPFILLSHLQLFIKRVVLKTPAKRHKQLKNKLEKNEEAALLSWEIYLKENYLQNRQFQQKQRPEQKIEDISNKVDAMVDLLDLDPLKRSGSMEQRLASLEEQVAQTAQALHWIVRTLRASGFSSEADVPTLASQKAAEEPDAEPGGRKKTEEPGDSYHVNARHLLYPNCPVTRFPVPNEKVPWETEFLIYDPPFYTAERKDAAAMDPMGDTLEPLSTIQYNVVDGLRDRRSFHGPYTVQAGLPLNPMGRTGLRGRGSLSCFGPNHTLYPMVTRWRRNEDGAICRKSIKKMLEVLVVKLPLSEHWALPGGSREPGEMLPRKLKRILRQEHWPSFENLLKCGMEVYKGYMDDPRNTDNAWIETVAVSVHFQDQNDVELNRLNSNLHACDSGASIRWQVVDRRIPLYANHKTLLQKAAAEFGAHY

“5-((octanyloxy) (phenyl) methyl) indolizine-7-ethyl carboxylate [II-49]” displayed an IC50 of 20 to 50 µM.

Compound `CCCOC(=O)c1cc(C(=O)c2ccccc2)n2cccc2c1` [II-2, 5-benzoimide 7-carboxypropyl ester] came in with an IC50 of 1 to 10 µM.

The compound `CC(=O)c1cc(C(=O)c2ccccc2)n2cccc2c1` [II-3, 1-(5-Benzimide-7-yl) ethane-1-ketone] displayed an IC50 of 10 to 20 µM.

On to `COC(=O)c1cc(C(=O)c2ccc(F)cc2)n2cccc2c1` [II-4, 5-(4-Fluorobenzoyl) indolizine-7-methyl carboxylate], for which the IC50 is 10 to 20 µM.

`CCOC(=O)c1cc(C(=O)c2ccc(F)cc2)n2cccc2c1` [II-5, 5-(4-fluorobenzoyl) indolizinee-7-ethyl carboxylate] yielded a 50% inhibitory concentration (IC50) of 10 to 20 µM.

The compound `COC(=O)c1cc(C(=O)c2cccc(F)c2)n2cccc2c1` [II-6, 5-(3-Fluorobenzoyl)indolizine-7-methyl carboxylate] showed an IC50 of 1 to 10 µM.

Take `CCOC(=O)c1cc(C(=O)c2cccc(F)c2)n2cccc2c1` [II-7, 5-(3-fluorobenzoyl)indolizine-7-ethyl carboxylate]: the IC50 was 1 to 10 µM.

Compound `COC(=O)c1cc(C(=O)c2ccccc2F)n2cccc2c1` [II-8, 5-(2-Fluorobenzoyl) indolizine-7-methyl carboxylate] yielded an IC50 of 1 to 10 µM.

In the case of `CCOC(=O)c1cc(C(=O)c2cccc(Cl)c2)n2cccc2c1` [II-9, 5-(3-chlorobenzoyl) indolizine-7-ethyl carboxylate], the IC50 was in the range of 1 to 10 µM.

Turning to `CCOC(=O)c1cc(C(=O)c2cccc(Br)c2)n2cccc2c1` [II-10, 5-(3-bromobenzoyl) indolizine-7-Ethyl carboxylate], the IC50 is 1 to 10 µM.

The compound `CCOC(=O)c1cc(C(=O)c2cccc(C)c2)n2cccc2c1` [II-11, 5-(3-methylbenzoyl) indolizine-7-Ethyl carboxylate] returned an IC50 of 1 to 10 µM.

Turning to `CCOC(=O)c1cc(C(=O)c2cccc(OC)c2)n2cccc2c1` [II-12, Ethyl 5-(3-methoxybenzoyl) indolizine-7-carboxylate], the half-maximal inhibitory concentration (IC50) lay in the range of 10 to 20 µM.

For `COC(=O)c1cc(C(=O)c2ccco2)n2cccc2c1` [II-13, 5-(furan-2-carbonyl) indolizine-7-methyl carboxylate], the IC50 lay within 1 to 10 µM.

Regarding `CCOC(=O)c1cc(C(=O)c2ccco2)n2cccc2c1` [II-14, 5-(furan-2-carbonyl) indolizine-7-ethyl carboxylate], the IC50 was in the range of 1 to 10 µM.

On to `COC(=O)c1cc(C(=O)c2cccs2)n2cccc2c1` [II-15, 5-(thiophen-2-carbonyl)indolizine-7-methyl carboxylate], for which the IC50 lay within 10 to 20 µM.

As for `CCOC(=O)c1cc(C(=O)c2cccs2)n2cccc2c1` [II-16, 5-(thiophen-2-carbonyl) indolizine-7-ethyl carboxylate], the half-maximal inhibitory concentration (IC50) lay in the range of 1 to 10 µM.

`COC(=O)c1cc(C(=O)c2ccccn2)n2cccc2c1` [II-17, 5-methylpyridinimide-7-methyl carboxylate] yielded an IC50 of 1 to 10 µM.

For `CCOC(=O)c1cc(C(=O)c2ccccn2)n2cccc2c1` [II-18, 5-methylpyridinimide-7-ethyl carboxylate], the IC50 lay within 1 to 10 µM.

On to `O=C(O)c1cc(C(=O)c2ccccc2)n2cccc2c1` [II-19, 5-benzimide-7-carboxylic acid], for which the IC50 was in the range of 10 to 20 µM.

`NC(=O)c1cc(C(=O)c2ccccc2)n2cccc2c1` [II-20, 5-benzimide-7-formamide] displayed an IC50 of 10 to 20 µM.

As to `CCNC(=O)c1cc(C(=O)c2ccccc2)n2cccc2c1` [II-21, 5-benzoyl-N-ethylindolizine-7-formamide], the IC50 lay within 10 to 20 µM.

`CN(C)C(=O)c1cc(C(=O)c2ccccc2)n2cccc2c1` [II-22, 5-benzoyl-N, N-dimethylindolizine-7-formamide] registered an IC50 of 10 to 20 µM.

`CCN(C)C(=O)c1cc(C(=O)c2ccccc2)n2cccc2c1` [II-24, 5-Benzoyl-N-ethyl-N-methylindolizine-7-formamide] displayed an IC50 of 1 to 10 µM.

With `CON(C)C(=O)c1cc(C(=O)c2ccccc2)n2cccc2c1` [II-25, 5-Benzoyl-N-methoxy-N-methylindolizine-7-formamide], the IC50 fell in the range of 1 to 10 µM.

`O=C(c1ccccc1)c1cc(C(=O)N2CCC2)cc2cccn12` [II-26, azetidine-1-yl (5-benzoimide 7-yl) ketone] displayed a 50% inhibitory concentration (IC50) of 1 to 10 µM.

Consider `O=C(c1ccccc1)c1cc(C(=O)N2CCCC2)cc2cccn12` [II-27, (5-benzoimide 7-yl) (pyrrolidine-1-yl) ketone], for which the IC50 was in the range of 10 to 20 µM.

In turn, `O=C(c1ccccc1)c1cc(C(=O)N2CCCCC2)cc2cccn12` [II-28, (5-benzimide 7-yl) (piperidin-1-yl) ketone] registered an IC50 of 10 to 20 µM.

With `O=C(c1ccccc1)c1cc(C(=O)N2CCNCC2)cc2cccn12` [II-29, (5-benzoyl indolizine-7-yl) (piperazin-1-yl) ketone], the 50% inhibitory concentration (IC50) is 20 to 50 µM.

`O=C(c1ccccc1)c1cc(C(=O)N2CCOCC2)cc2cccn12` [II-30, (5-benzimide-7-yl) (morphyryl) ketone] had a concentration for half-maximal inhibition (IC50) of 20 to 50 µM.

Compound `CN1CCN(C(=O)c2cc(C(=O)c3ccccc3)n3cccc3c2)CC1` [II-31, (5-Benzimide-7-yl) (4-methylpiperazin-1-yl) ketone] showed an IC50 of 10 to 20 µM.

Compound `CCN(CC)C(=O)c1cc(C(=O)c2ccccc2F)n2cccc2c1` [II-32, N, N-Diethyl-5-(2-fluorobenzoyl) indolizine-7-formamide] yielded a half-maximal inhibitory concentration (IC50) of 10 to 20 µM.

`O=C(c1ccccc1F)c1cc(C(=O)N2CCCC2)cc2cccn12` [II-33, (5-(2-fluorobenzoyl)indolizine-7-yl) (pyrrolidine-1-yl) ketone] yielded an IC50 of 10 to 20 µM.

As for `CCN(CC)C(=O)c1cc(C(=O)c2ccccn2)n2cccc2c1` [II-34, N, N-Diethyl-5-pyridylimide-7-formamide], the IC50 was in the range of 1 to 10 µM.

`O=C(c1ccccn1)c1cc(C(=O)N2CCCC2)cc2cccn12` [II-35] displayed an IC50 of 10 to 20 µM.

Compound `O=C(c1ccccn1)c1cc(C(=O)N2CCNCC2)cc2cccn12` [II-36, (5-Pyridinyllin-2-yl) (Piperazin-1-yl) Methylketone] registered an IC50 of 20 to 50 µM.

Turning to `O=C(c1ccccc1)c1cc(C(=O)N2CCNCC2)cc2cccn12` [II-37, (5-Benzimide-7-yl) (piperazin-1-yl) ketone hydrochloride], the IC50 is 10 to 20 µM.

Take `CCN(CC)C(=O)c1cc(C(=O)c2ccccn2)n2cccc2c1` [II-38, N,N-Diethyl-5-pyridylimide-7-formamide hydrochloride]: the IC50 lay within 20 to 50 µM.

`O=C(c1ccccn1)c1cc(C(=O)N2CCNCC2)cc2cccn12` [II-40, hydrochloride] yielded an IC50 of 10 to 20 µM.

As to `CCOC(=O)c1cc(C(O)c2ccccc2)n2cccc2c1` (stereo not shown) [II-41], the IC50 is 10 to 20 µM.

The compound `O=C(O)c1cc(C(O)c2ccccc2)n2cccc2c1` (stereo not shown) [II-42] gave an IC50 of 10 to 20 µM.

On to `CCNC(=O)c1cc(C(O)c2ccccc2)n2cccc2c1` (stereo not shown) [II-43, N-ethyl-5-(hydroxy(phenyl)methyl) indolizine-7-formamide], for which the IC50 lay within 10 to 20 µM.

`CN(C)C(=O)c1cc(C(O)c2ccccc2)n2cccc2c1` (stereo not shown) [II-44, 5-(hydroxy(phenyl)methyl)-N, N-dimethylindolizine-7-formamide] yielded an IC50 of 10 to 20 µM.

`CCN(CC)C(=O)c1cc(C(O)c2ccccc2)n2cccc2c1` (stereo not shown) [II-45, N,N-diethyl-5-(hydroxy(phenyl)methyl) indolizine-7-formamide] returned a half-maximal inhibitory concentration (IC50) of 10 to 20 µM.

For the compound `CCN(C)C(=O)c1cc(C(O)c2ccccc2)n2cccc2c1` (stereo not shown) [II-46, N-ethyl-5-(hydroxy(phenyl)methyl)-N-methylindolizine-7-formamide], the IC50 lay in the range of 10 to 20 µM.

In turn, `CCOC(=O)c1cc(C(OC(C)=O)c2ccccc2)n2cccc2c1` (stereo not shown) [II-47, 5-(acetoxy (phenyl)methyl) indolizine-7-ethyl carboxylate] had an IC50 of 10 to 20 µM.

On to `CCCC(=O)OC(c1ccccc1)c1cc(C(=O)OCC)cc2cccn12` (stereo not shown) [II-48], for which the IC50 was 10 to 20 µM.

As for `CCN(CC)C(=O)c1cc(C(OC(C)=O)c2ccccc2)n2cccc2c1` (stereo not shown) [II-50], the IC50 was in the range of 10 to 20 µM.

In the case of `CCCC(=O)OC(c1ccccc1)c1cc(C(=O)N(CC)CC)cc2cccn12` (stereo not shown) [II-51], the IC50 is 20 to 50 µM.

`CCCCCCCC(=O)OC(c1ccccc1)c1cc(C(=O)N(CC)CC)cc2cccn12` (stereo not shown) [II-52] had an IC50 of 20 to 50 µM.

In the case of `CCOC(=O)c1cc(C(OC)c2ccccc2)n2cccc2c1` (stereo not shown) [II-53], the IC50 fell in the range of 1 to 10 µM.

With `CCCOC(c1ccccc1)c1cc(C(=O)OCC)cc2cccn12` (stereo not shown) [II-54, 5-(Phenyl (Propyloxy) Methylindolizine-7-ethyl carboxylate], the half-inhibitory concentration (IC50) is 10 to 20 µM.

Compound `COC(=O)c1cc(C(=O)c2ccc(Cl)cc2)n2ccnc2c1` [III-2, 5-(4-chlorobenzoyl) imidazolo [1,2-a]pyridine-7-methyl carboxylate] gave a 50% inhibitory concentration (IC50) of 10 to 20 µM.
